The text below walks through data of ChEMBL document CHEMBL1142237, “Cytotoxic triterpenoid saponins of Albizia gummifera from the Madagascar rain forest” (J Nat Prod, 2007).

Holding throughout (assay type): functional, cell-based
For one assay, the system named is HT-29. Kind of assay: Antiproliferative activity against human HT29 cells after 96 hrs. The note with it: HT-29, 96 h.
In the next assay the test system is MDA-MB-435. Kind of assay: Antiproliferative activity against human MDA-MB-435 cells after 96 hrs. Conditions: MDA-MB-435, 96 h.
The test system of another assay is A2780. Nature of the assay: Antiproliferative activity against human A2780 cells after 96 hrs. Conditions: A2780, 96 h.
Assay [1] is described as follows: Antiproliferative activity against human H522-T1 cells after 96 hrs. The note with it: H522-T1, 96 h.
The next assay concerns U-937. Kind of assay: Antiproliferative activity against human U937 cells after 96 hrs. Conditions: U-937, 96 h.

Usually IC50 stands for the concentration that gives 50% inhibition. With `C=C[C@](C)(CC/C=C(\C)C(=O)O[C@H]1[C@H](O)[C@@H](O)[C@H](O[C@](C)(C=C)CC/C=C(\C)C(=O)O[C@H]2[C@H](O)[C@@H](O)[C@H](O[C@](C)(C=C)CC/C=C(/C)C(=O)O[C@H]3C[C@]4(C(=O)O[C@@H]5O[C@H](CO)[C@@H](O)[C@H](O)[C@H]5O[C@@H]5O[C@@H](C)[C@H](O[C@@H]6OC[C@@H](O)[C@H](O)[C@H]6O)[C@@H](O)[C@H]5O)[C@H](O)C[C@]5(C)C(=CC[C@@H]6[C@@]7(C)CC[C@H](O[C@@H]8O[C@H](CO[C@@H]9O[C@H](C)[C@H](O)[C@H](O)[C@H]9O)[C@@H](O)[C@H](O)[C@H]8O[C@@H]8O[C@H](CO)[C@@H](O)[C@H](O)[C@H]8O)C(C)(C)C7CC[C@]65C)[C@@H]4CC3(C)C)O[C@@H]2C)O[C@@H]1C)O[C@@H]1O[C@H](C)[C@@H](O)[C@H](O)[C@H]1O` (stereo not given in full) [GUMMIFERAOSIDE C], the IC50 in the assay on HT-29 was 610 nM; with MDA-MB-435, 480 nM; in the assay on A2780, 260 nM; in assay [1] it was 640 nM; in the assay on U-937, 290 nM.
